Laboratory results taken from article PMC10975611, “Heterocycles 52: The Drug-Likeness Analysis of Anti-Inflammatory Thiazolo[3,2-b][1,2,4]triazole and Imidazo[2,1-b][1,3,4]thiadiazole Derivatives” (Pharmaceuticals, 2024).

Legend:
[1] = Lipophilicity by reversed-phase thin-layer chromatography (RP-TLC), isopropanol-water mobile phase; type: physicochemical; settings: for mRM (arithmetic mean of the experimental retention factors RM): RP-18F254s plates, isopropanol 70–90% in water; for RM0 (relative lipophilicity, RM extrapolated to pure water): Soczewinski Wachtmeister equation, isopropanol 70–90%; for lipophilicity (in words): chromatographic lipophilicity profile / lipophilicity descriptors; for PC1(RM): score of first principal component of RM values at isopropanol 70–90%; for b (slope): slope of RM versus isopropanol concentration; for φ0 (chromatographic hydrophobic index): φ0 = RM0/b
Procedure: Lipophilicity was assessed by RP-TLC, using RP-[…] standard silica gel plates (20 × 10 cm) as the stationary phase. An isopropanol:water binary mixture was used as the mobile phase, with different isopropanol concentrations 70%, 75%, 80%, 85%, 90% for thiazolo[3,2-b][1,2,4]triazole (1a–16a) and imidazo[2,1-b][1,3,4]thiadiazole (1b–16b) compounds.
The standard solutions (1 mg/mL) used to investigate the lipophilicity of the synthesized compounds were prepared in dichloromethane (1a–16a compounds) and dimethylsulfoxide (1b–16b compounds). From the obtained solutions, 2 µL was applied manually on the chromatographic plates, at 15 mm from the baseline and 5 mm from the edges of the plate at a spot distance of 12 mm. This procedure was repeated three times. The chromatographic plate upward elution was performed in a chromatographic chamber previously saturated for 30 min with mobile phase, at normal atmospheric pressure and room temperature. The migration distance of the eluent was 80 mm. The chromatographic plates were visually inspected under UV light at λ = 254 nm to identify the compounds. In order to minimize possible experimental errors, three measurements were performed for each mobile phase. The retention factors (Rf) were calculated as the average of three determinations in each case.
Based on the Rf values, a variety of parameters can be determined to estimate the lipophilicity of the compounds. The isocratic retention factor (RM) was determined using the Bate–Smith and Westall equation [34]:RM = log(1/Rf − 1) where Rf = x/y and x = the migration distance of the compound, and y = the migration distance of the solvent front.
There is usually a linear correlation between the RM values and the concentration of the organic component in the mobile phase. For a better estimation of lipophilicity, RM0 was determined as the extrapolated retention factor, considering pure water as the mobile phase (Soczewinski Wachtmeister equation):RM = RM0 + bC where b is the slope of the curve, which indicates the rate at which the solubility of the compound increases in the mobile phase, C is the concentration of the isopropanol in the mobile phase, and RM0 is the RM of the compound when the concentration of isopropanol is zero (extrapolated value).
To estimate the lipophilicity of the compounds, φ0, representing the chromatographic hydrophobicity index, was also determined. It corresponds to the percentage (by volume) of the organic component in the mobile phase and can be determined according to the following formula:φ0 = RM0/b
In order to assess the lipophilicity of compounds, other more relevant lipophilicity parameters have been used, such as the arithmetic mean of the experimental retention factors (mRM), and the score associated with the first principal component (PC1(RM)) obtained by applying principal component analysis (PCA) to the retention parameters RM [35, 36]. The determination of these parameters eliminates the errors that appear during the extrapolation procedure (when determining RM0) so that the results are more accurate.

[2] = design: method as in doi:10.31925/farmacia.2018.5.20, PMID 30248903; settings: acute inflammation, compared to diclofenac; cited from earlier work
[3] = design: method as in doi:10.31925/farmacia.2018.5.20, PMID 30248903; settings: in vivo; cited from earlier work

## COc1ccc(-c2cn3nc(-c4ccccc4)sc3n2)cc1 [Compound 4b]
[1]
  mRM (arithmetic mean of the experimental retention factors RM): 0.071
  RM0 (relative lipophilicity, RM extrapolated to pure water): 1.805
  lipophilicity (in words): low lipophilicity
  PC1(RM): −0.362
  b (slope): −0.022
  φ0 (chromatographic hydrophobic index): 83.16
[2]
  in vivo anti-inflammatory activity: significantly reduced acute inflammation in vivo
[3]
  pain threshold: increased pain threshold

## COc1ccc(-c2csc3nc(-c4ccccc4)nn23)cc1 [Compound 4a]
[1]
  mRM (arithmetic mean of the experimental retention factors RM): 0.031
  RM0 (relative lipophilicity, RM extrapolated to pure water): 1.612
  lipophilicity (in words): low lipophilicity
  PC1(RM): −0.216
  b (slope): −0.020
  φ0 (chromatographic hydrophobic index): 81.40
[2]
  in vivo anti-inflammatory activity: significantly reduced acute inflammation in vivo
[3]
  pain threshold: increased pain threshold

## c1ccc(-c2nc3scc(-c4ccccc4)n3n2)cc1 [Compound 1a]
[1]
  mRM (arithmetic mean of the experimental retention factors RM): 0.056
  RM0 (relative lipophilicity, RM extrapolated to pure water): 1.810
  PC1(RM): −0.309
  b (slope): −0.022
  φ0 (chromatographic hydrophobic index): 82.63
[2]
  in vivo anti-inflammatory activity: significantly reduced acute inflammation in vivo
[3]
  pain threshold: increased pain threshold

## COc1ccc(-c2nc3scc(-c4ccccc4)n3n2)cc1 [Compound 9a]
[1]
  mRM (arithmetic mean of the experimental retention factors RM): 0.006
  RM0 (relative lipophilicity, RM extrapolated to pure water): 1.705
  lipophilicity (in words): low lipophilicity
  PC1(RM): −0.127
  b (slope): −0.021
  φ0 (chromatographic hydrophobic index): 80.40
[2]
  in vivo anti-inflammatory activity: significantly reduced acute inflammation in vivo
[3]
  pain threshold: increased pain threshold

## Clc1ccc(-c2nn3cc(-c4ccccc4)nc3s2)cc1 [Compound 5b]
[1]
  mRM (arithmetic mean of the experimental retention factors RM): 0.144
  RM0 (relative lipophilicity, RM extrapolated to pure water): 2.270
  PC1(RM): −0.624
  b (slope): −0.027
  φ0 (chromatographic hydrophobic index): 85.32
[2]
  in vivo anti-inflammatory activity: significantly reduced acute inflammation in vivo
[3]
  pain threshold: increased pain threshold

## COc1ccc(-c2nn3cc(-c4ccccc4)nc3s2)cc1 [Compound 9b]
[1]
  mRM (arithmetic mean of the experimental retention factors RM): 0.138
  RM0 (relative lipophilicity, RM extrapolated to pure water): 1.900
  lipophilicity (in words): low lipophilicity
  PC1(RM): −0.596
  b (slope): −0.022
  φ0 (chromatographic hydrophobic index): 85.59
[2]
  in vivo anti-inflammatory activity: significantly reduced acute inflammation in vivo
[3]
  pain threshold: increased pain threshold

## COc1ccc(-c2nc3scc(-c4ccc(OC)cc4)n3n2)cc1 [Compound 12a]
[1]
  mRM (arithmetic mean of the experimental retention factors RM): −0.013
  RM0 (relative lipophilicity, RM extrapolated to pure water): 1.696
  lipophilicity (in words): low lipophilicity
  PC1(RM): −0.058
  b (slope): −0.021
  φ0 (chromatographic hydrophobic index): 79.62
[2]
  in vivo anti-inflammatory activity: significantly reduced acute inflammation in vivo
[3]
  pain threshold: increased pain threshold

## COc1ccc(-c2cn3nc(-c4ccc(OC)cc4)sc3n2)cc1 [Compound 12b]
[1]
  mRM (arithmetic mean of the experimental retention factors RM): 0.097
  RM0 (relative lipophilicity, RM extrapolated to pure water): 1.460
  lipophilicity (in words): low lipophilicity
  PC1(RM): −0.450
  b (slope): −0.017
  φ0 (chromatographic hydrophobic index): 85.89
[2]
  in vivo anti-inflammatory activity: significantly reduced acute inflammation in vivo
[3]
  pain threshold: increased pain threshold
